Test results taken from BindingDB's records for doi:10.1016/j.bmcl.2010.07.026 (Daiichi Sankyo, 2010).

molecular target: 3-phosphoinositide-dependent protein kinase 1 (Homo sapiens) (UniProt O15530); experiment: Inhibition of recombinant PDK1 after 15 mins

IC50, > 100 µM:
O=C(NC[C@@H]1CCCN1)c1ccc(-c2cnc3ccc(NCC4CC4)nn23)cc1 [(S)-4-(6-(cyclopropylmethylamino)imidazo[1,2-b]pyridazin-3-yl)-N-(pyrrolidin-2-ylmethyl)benzamide]
O=C(NCCN1CCCC1)c1ccc(-c2cnc3ccc(NCc4ccc(Cl)c(Cl)c4)nn23)cc1 [4-(6-(3,4-dichlorobenzylamino)imidazo[1,2-b]pyridazin-3-yl)-N-(2-(pyrrolidin-1-yl)ethyl)benzamide]
O=C(NC[C@@H]1CCCN1)c1ccc(-c2cnc3ccc(NCc4cccc(Cl)c4)nn23)cc1 [(S)-4-(6-(3-chlorobenzylamino)imidazo[1,2-b]pyridazin-3-yl)-N-(pyrrolidin-2-ylmethyl)benzamide]
CN(C)CCNC(=O)c1ccc(-c2cnc3ccc(NCC4CC4)nn23)cc1 [4-(6-(cyclopropylmethylamino)imidazo[1,2-b]pyridazin-3-yl)-N-(2-(dimethylamino)ethyl)benzamide]
O=C(NC[C@@H]1CCCN1)c1ccc(-c2cnc3ccc(NCc4ccc(Cl)c(Cl)c4)nn23)cc1 [(S)-4-(6-(3,4-dichlorobenzylamino)imidazo[1,2-b]pyridazin-3-yl)-N-(pyrrolidin-2-ylmethyl)benzamide]
